The target of test [1] is GST-tagged K-Ras mutant / His-tagged hSOS1 (Homo sapiens, UniProt P01116). As to the kind of experiment: HTRF assay, K-Ras mutant / SOS1 interaction. Format: binding. The conditions noted are these: read-out: IC50 against mutant Kras. In short, it runs like this: (§1)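 GST-tagged K-Ras (mutant or wildtype) with anti-GST-Eu donor was mixed with His-hSOS1 and anti-6His-XL665 acceptor in HEPES pH 7.4 buffer with NaCl, DTT, BSA and Igepal. After ≥10 min, HTRF was read (ex 337 nm, em 620/665 nm); 665/620 ratios gave IC50 from duplicate dilution series.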
GST-tagged K-Ras mutant / His-tagged hSOS1, sequence (P01116 whole entry G12D, form open): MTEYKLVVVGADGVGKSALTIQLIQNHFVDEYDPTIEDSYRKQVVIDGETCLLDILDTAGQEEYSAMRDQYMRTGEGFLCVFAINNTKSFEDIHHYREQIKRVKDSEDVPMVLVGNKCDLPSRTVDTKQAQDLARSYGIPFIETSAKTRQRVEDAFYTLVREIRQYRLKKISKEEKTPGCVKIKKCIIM

For test [2], the target named is T1, wildtype Kras / hSOS1 (Homo sapiens, UniProt P01116).
T1 construct: made in house; host or cells: E. coli BL21 (DE3)
T1 sequence (P01116 1-188 isoform P01116-2): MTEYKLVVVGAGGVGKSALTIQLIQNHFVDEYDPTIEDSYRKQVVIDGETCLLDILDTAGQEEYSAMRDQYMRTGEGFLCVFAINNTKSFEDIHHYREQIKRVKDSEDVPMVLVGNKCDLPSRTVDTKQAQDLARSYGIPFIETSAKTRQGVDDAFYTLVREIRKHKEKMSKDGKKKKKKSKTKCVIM
As to the kind of experiment: HTRF assay, wildtype Kras / SOS1 interaction. The conditions noted are these: read-out: IC50 against wildtype Kras. Type of test: binding. The procedure, abridged: as §1

Setting [3] is: compound nos. 102-196, general methodology of example 5.

Read-outs that look alike come from different tables or passages of the source.

With `Nc1nc2ccccc2c(-c2ccc3c(N4CC5CCC(C4)N5)nc(OCC45CCCN4CCC5)nc3c2F)c1Cl` [Compound 493, 4-(4-(3,8-diazabicyclo-[3.2.1]octan-3-yl)-8-fluoro-2-((tetrahydro-1H-pyrrol-izin-7a(5H)-yl)methoxy)-quinazolin-7-yl)-3-chloro-quinolin-2-amine], the IC50 was above 500 nM in test [1] (compound nos. 401-703) and below 500 nM in test [2] (compound nos. 401-703).
The corresponding values for `COC1CCCCN(c2nc(OC[C@@H]3CCCN3C)nc3c(F)c(-c4cccc5sc(N)nc45)c(Cl)cc23)C1` (stereo partly drawn) [Compound 524, 4-(6-chloro-8-fluoro-4-(3-methoxyazepan-1-yl)-2-(((S)-1-methylpyrrolidin-2-yl)methoxy)quinazolin-7-yl)benzo[d]thiazol-2-amine] are below 500 nM and above 500 nM.
`CN1CCC[C@H]1COc1nc(N2CCCCC(F)(F)C2)c2cc(Cl)c(-c3cccn4nc(N)nc34)c(F)c2n1` [Compound 182, (S)-8-(6-chloro-4-(3,3-difluoroazepan-1-yl)-8-fluoro-2-((1-methylpyrrol-idin-2-yl)methoxy)quin-azolin-7-yl)[1,2,4]triazolo-[1,5-a]pyridin-2-amine]: the IC50 in test [1] (setting [3]) and in test [2] (setting [3]) was above 500 nM throughout.
Consider `Nc1nc2c(-c3c(Cl)cc4c(N5CC6CCC(C5)O6)nc(OC[C@@]56CCCN5C[C@H](F)C6)nc4c3F)ccc(F)c2s1` [Compound 454, 4-(4-(8-oxa-3-azabicyclo-[3.2.1]octan-3-yl)-6-chloro-8-fluoro-2-(((2R,7aS)-2-fluorotetrahydro-1H-pyrrolizin-7a(5H)-yl)meth-oxy)quinazolin-7-yl)-7-fluorobenzo[d]thiazol-2-amine], for which the half-inhibitory concentration (IC50) in test [1] (compound nos. 401-703) and in test [2] (compound nos. 401-703) was below 500 nM throughout.
With `Nc1nc2c(-c3c(Cl)cc4c(N5CC6CCC(C5)N6)nc(OCC56CCCN5CCC6)nc4c3F)c(F)ccc2s1` [Compound 578, 4-(4-(3,8-diazabicyclo-[3.2.1]octan-3-yl)-6-chloro-8-fluoro-2-((tetrahydro-1H-pyrrolizin-7a(5H)-l)meth-oxy)quinazolin-7-yl)-5-fluorobenzo[d]thiazol-2-amine], the values for the IC50 in test [1] (compound nos. 401-703) and in test [2] (compound nos. 401-703) were below 500 nM and above 500 nM, respectively.
For the compound `Nc1nc2c(-c3c(Cl)cc4c(N5CCNCC(F)(F)C5)nc(OCC5(CN6CCCC6)CC5)nc4c3F)ccc(F)c2s1` [Compound 452, 4-(6-chloro-4-(6,6-difluoro-1,4-diazepan-1-yl)-8-fluoro-2-((1-(pyrrolidin-1-ylmeth-yl)cyclopropyl)methoxy)-quinazolin-7-yl)-7-fluoro-benzo[d]thiazol-2-amine], the IC50 in test [1] (compound nos. 401-703) and in test [2] (compound nos. 401-703) was below 500 nM throughout.
Take `Cc1ccnc(C(C)C)c1-n1c(=O)nc(N2CC3CCC(C2)N3)c2cc(F)c(-c3c(O)cccc3F)nc21` [Compound 687, 4-(3,8-diazabicyclo[3.2.1]-octan-3-yl)-6-fluoro-7-(2-fluoro-6-hydroxyphenyl)-1-(2-isopropyl-4-methylpyr-idin-3-yl)pyrido[2,3-d]pyr-imidin-2(1H)-one]: the IC50 in test [1] (compound nos. 401-703) and in test [2] (compound nos. 401-703) was above 500 nM each time.
`Nc1nc2c(-c3c(Cl)cc4c(N5CCCOC(CO)C5)nc(OCC56CCCN5CCC6)nc4c3F)cccc2s1` (centres unmarked) [Compound 465, (4-(7-(2-aminobenzo[d]-thiazol-4-yl)-6-chloro-8-fluoro-2-((tetrahydro-1H-pyrrolizin-7a(5H)-yl)meth-oxy)quinazolin-4-yl)-1,4-oxazepan-2-yl)methanol]: the concentration for half-maximal inhibition (IC50) in test [1] (compound nos. 401-703) and in test [2] (compound nos. 401-703) was below 500 nM in each case.
`CN(C)CC1(COc2nc(N3CC4CCC(C3)N4)c3cc(Cl)c(-c4cccc5oc(N)nc45)c(F)c3n2)CC1` [Compound 692, 4-(4-(3,8-diazabicyclo-[3.2.1]-octan-3-yl)-6-chloro-2-((1-((dimethylamino)-methyl)cyclopropyl)meth-oxy)-8-fluoroquinazolin-7-yl)benzo[d]oxazol-2-amine]: the half-maximal inhibitory concentration (IC50) was below 500 nM in test [1] (compound nos. 401-703) and above 500 nM in test [2] (compound nos. 401-703).
Turning to `C#Cc1cccc2cc(O)cc(-c3ccc4c(N5CCNCC(F)(F)C5)nc(OC[C@@]56CCCN5C[C@H](F)C6)nc4c3F)c12` [Compound 609, 4-(4-(6,6-difluoro-1,4-diazepan-1-yl)-8-fluoro-2-(((2R,7aS)-2-fluorotetra-hydro-1H-pyrrolizin-7a(5H)-yl)methoxy)quin-azolin-7-yl)-5-ethynylnaph-thalen-2-ol], the IC50 in test [1] (compound nos. 401-703) was below 500 nM; in test [2] (compound nos. 401-703), above 500 nM.
On to `Nc1nc2c(-c3c(Cl)cc4c(N5CCCCCCC5)nc(OC[C@@]56CCCN5C[C@H](F)C6)nc4c3F)ccc(F)c2s1` [Compound 667, 4-(4-(azocan-1-yl)-6-chloro-8-fluoro-2-(((2R,7aS)-2-fluorotetrahydro-1H-pyrrol-izin-7a(5H)-yl)methoxy)-quinazolin-7-yl)-7-fluoro-benzo[d]thiazol-2-amine], for which the figures for the concentration for half-maximal inhibition (IC50) in test [1] (compound nos. 401-703) and in test [2] (compound nos. 401-703) were below 500 nM and above 500 nM, respectively.
The corresponding values for `Nc1nc2c(-c3c(Cl)cc4c(N5CC6CCC(C5)N6)nc(OCC56CCCN5CCC6)nc4c3F)cc(F)cc2s1` [Compound 542, 4-(4-(3,8-diazabicyclo-[3.2.1]octan-3-yl)-6-chloro-8-fluoro-2-((tetrahydro-1H-pyrrolizin-7a(5H)-yl)meth-oxy)quinazolin-7-yl)-6-fluorobenzo[d]thiazol-2-amine] are below 500 nM and above 500 nM.
Regarding `CN1CCC[C@H]1COc1nc(N2CCCC(F)(F)CC2)c2cc(Cl)c(-c3cccc4sc(N)nc34)c(F)c2n1` [Compound 119, 4-(6-chloro-4-(4,4-difluoro-azepan-1-yl)-8-fluoro-2-(((S)-1-methylpyrrolidin-2-yl)methoxy)quinazolin-7-yl)-benzo[d]thiazol-2-amine], the half-inhibitory concentration (IC50) in test [1] (setting [3]) is above 500 nM; in test [2] (setting [3]), below 500 nM.
`CNCC1CN(c2nc(OCC34CCCN3CCC4)nc3c(F)c(-c4ccc(F)c5sc(N)nc45)c(Cl)cc23)CCCO1` (centres unmarked) [Compound 481, 4-(6-chloro-8-fluoro-4-(2-((methylamino)methyl)-1,4-oxazepan-4-yl)-2-((tetra-hydro-1H-pyrrolizin-7a(5H)-yl)methoxy)quinazolin-7-yl)-7-fluorobenzo[d]thiazol-2-amine]: the half-inhibitory concentration (IC50) in test [1] (compound nos. 401-703) and in test [2] (compound nos. 401-703) was below 500 nM each time.
With `Nc1nc2c(-c3c(Cl)cc4c(N5CC6CCC(C5)N6)nc(OC[C@@]56CCCN5C[C@H](F)C6)nc4c3F)cccc2o1` [Compound 588, 4-(4-(3,8-diazabicyclo-[3.2.1]-octan-3-yl)-6-chloro-8-fluoro-2-(((2R,7aS)-2-fluorotetrahydro-1H-pyrrol-izin-7a(5H)-yl)methoxy)-quinazolin-7-yl)benzo[d]-oxazol-2-amine], the figures for the concentration for half-maximal inhibition (IC50) in test [1] (compound nos. 401-703) and in test [2] (compound nos. 401-703) were below 500 nM and above 500 nM, respectively.
The matching figures for `Nc1nc2c(-c3c(Cl)cc4c(N5CCCCCC5)nc(OC[C@@]56CCCN5C[C@H](F)C6)nc4c3F)ccc(F)c2s1` [Compound 499, 4-(4-(azepan-1-yl)-6-chloro-8-fluoro-2-(((2R,7aS)-2-fluorotetrahydro-1H-pyrrol-izin-7a(5H)-yl)methoxy)-quinazolin-7-yl)-7-fluoro-benzo[d]thiazol-2-amine]: below 500 nM and below 500 nM.
Regarding `Nc1nc2c(-c3c(Cl)cc4c(N5CCN(S(=O)(=O)C6CC6)CC(F)(F)C5)nc(OC[C@@]56CCCN5C[C@H](F)C6)nc4c3F)ccc(F)c2s1` [Compound 576], the IC50 in test [1] (compound nos. 401-703) is below 500 nM; in test [2] (compound nos. 401-703), above 500 nM.
On to `OC1Cc2ccccc2N(c2ccc3c(N4CC5CCC(C4)N5)nc(OCC45CCCN4CCC5)nc3c2F)C1` (centres unmarked) [Compound 538, 1-(4-(3,8-diazabicyclo-[3.2.1]octan-3-yl)-8-fluoro-2-((tetrahydro-1H-pyrrol-izin-7a(5H)-yl)methoxy)-quinazolin-7-yl)-1,2,3,4-tetrahydro-quinolin-3-ol], for which the half-inhibitory concentration (IC50) in test [1] (compound nos. 401-703) and in test [2] (compound nos. 401-703) was above 500 nM in each case.
On to `Fc1c(N2CCCc3ccccc32)ccc2c(N3CCCCCC3)nc(OCC34CCCN3CCC4)nc12` [Compound 580, 4-(azepan-1-yl)-7-(3,4-dihydroquinolin-1(2H)-yl)-8-fluoro-2-((tetrahydro-1H-pyrrolizin-7a(5H)-yl)meth-oxy)quinazoline], for which the concentration for half-maximal inhibition (IC50) in test [1] (compound nos. 401-703) and in test [2] (compound nos. 401-703) was above 500 nM in each case.
In the case of `Nc1nc2c(-c3c(Cl)cc4c(N5CC6COCC(C5)N6)nc(OC[C@@]56CCCN5C[C@H](F)C6)nc4c3F)ccc(F)c2s1` [Compound 547, 4-(4-(3-oxa-7,9-diaza-bicyclo[3.3.1]nonan-7-yl)-6-chloro-8-fluoro-2-(((2R,7aS)-2-fluorotetra-hydro-1H-pyrrolizin-7a(5H)-yl)methoxy)quinazolin-7-yl)-7-fluorobenzo[d]thiazol-2-amine], the 50% inhibitory concentration (IC50) in test [1] (compound nos. 401-703) is below 500 nM; in test [2] (compound nos. 401-703) it was above 500 nM.
Turning to `Nc1nc2c(-c3c(Cl)cc4c(N5CC6CCC(C5)N6)nc(OCC5(CN6CCCC6)CC5)nc4c3F)cccc2o1` [Compound 653, 4-(4-(3,8-diazabicyclo-[3.2.1]octan-3-yl)-6-chloro-8-fluoro-2-((1-(pyrrolidin-1-ylmethyl)cyclopropyl)meth-oxy)quinazolin-7-yl)benzo-[d]oxazol-2-amine], the concentration for half-maximal inhibition (IC50) in test [1] (compound nos. 401-703) was below 500 nM; in test [2] (compound nos. 401-703) it was above 500 nM.
Take `CN1CCC[C@H]1COc1nc(N2CCSCC(F)(F)C2)c2cc(Cl)c(-c3cccc4sc(N)nc34)c(F)c2n1` [Compound 136, 4-(6-chloro-4-(6,6-difluoro-1,4-thiazepan-4-yl)-8-fluoro-2-(((S)-1-methylpyrrolidin-2-yl)methoxy)quinazolin-7-yl)benzo[d]thiazol-2-amine]: the IC50 in test [1] (setting [3]) and in test [2] (setting [3]) was below 500 nM in each case.

These data come from patent US20240254129A1, “HETEROCYCLIC COMPOUNDS AND USES THEREOF” (Kumquat Biosciences Inc., priority 2021, published 2024).
